We go through 26 compounds from US9896421B2, “Compound having skin-whitening, anti-oxidizing and PPAR activities and medical use thereof” (Pusan National University Industry-University Cooperation …, priority 2011, dated 2018).

The term melting point denotes the temperature of the solid-liquid transition.

Compound `CCOc1cc(C=C2C(=O)NC(=O)NC2=O)ccc1O` displayed a melting point of 244.7 to 246.1 °C.
For `COc1ccc(C=C2C(=O)NC(=O)NC2=O)cc1O`, the melting point was 279.3 to 281.4 °C.
As for `COc1ccc(C=C2C(=O)NC(=O)NC2=O)cc1OC`, the figure is greater than 300 °C; as for `COc1ccc(C=C2C(=O)NC(=O)NC2=O)c(OC)c1`, 291.1 to 291.7 °C; as for `COc1cc(C=C2C(=O)NC(=O)NC2=O)cc(OC)c1OC`, 274.8 to 275.4 °C.
The compound `O=C1NC(=S)NC(=O)C1=Cc1ccc(O)cc1O` displayed a melting point greater than 300 °C.
`COc1cc(C=C2C(=O)NC(=S)NC2=O)ccc1O` had a melting point of 260.9 to 263.6 °C.
In turn, `CCOc1cc(C=C2C(=O)NC(=S)NC2=O)ccc1O` had a melting point of 285 to 287.3 °C.
For the compound `COc1ccc(C=C2C(=O)NC(=S)NC2=O)cc1O`, the melting point fell in the range of 278.9 to 280.5 °C.
In turn, `COc1ccc(C=C2C(=O)NC(=S)NC2=O)cc1OC` showed a melting point of 269.9 to 271.7 °C.
As for `COc1ccc(C=C2C(=O)NC(=S)NC2=O)c(OC)c1`, the figure is 294.1 to 295.4 °C.
Compound `O=C1NC(=S)NC(=O)C1=Cc1ccccc1O` came in with a melting point of 250.6 to 251.4 °C.
Compound `COc1cc(C=C2C(=O)NC(=S)NC2=O)cc(OC)c1OC` came in with a melting point of 258.9 to 260.7 °C.
As for `COc1cc(C=C2C(=O)NC(=S)NC2=O)cc(OC)c1O`, the figure is greater than 300 °C.
`O=C1NC(=O)/C(=C/c2cc(O)cc(O)c2)S1` [Compound 9, (Z)-5-(3,5-dihydroxybenzylidene)thiazolidine-2,4-dione]: the melting point lay within 288.4 to 290.2 °C.
Consider `COc1ccc(/C=C2\SC(=O)NC2=O)c(OC)c1` [Compound 10, (Z)-5-(2,4-dimethoxybenzylidene)thiazolidine-2,4-dione], for which the melting point lay in the range of 254.7 to 255.6 °C.
In turn, `COc1cc(/C=C2\SC(=O)NC2=O)cc(OC)c1OC` [Compound 12, (Z)-5-(3,4,5-trimethoxybenzylidene)thiazolidine-2,4-dione] displayed a melting point of 179.1 to 181 °C.
With `O=C1NC(=O)/C(=C/c2ccc(O)cc2)N1` [Compound 25, (Z)-5-(4-hydroxybenzylidene)imidazolidine-2,4-dione], the melting point was greater than 300 °C.
`CCOc1cc(/C=C2\NC(=O)NC2=O)ccc1O` [Compound 28, (Z)-5-(3-ethoxy-4-hydroxybenzylidene)imidazolidine-2,4-dione] returned a melting point of 253 to 255.4 °C.
For `COc1ccc(/C=C2\NC(=O)NC2=O)c(OC)c1` [Compound 32, (Z)-5-(2,4-dimethoxybenzylidene)imidazolidine-2,4-dione], the melting point fell in the range of 234.1 to 237.2 °C.
With `O=C1NC(=O)/C(=C/c2ccccc2O)N1` [Compound 33, (Z)-5-(2-hydroxybenzylidene)imidazolidine-2,4-dione], the melting point fell in the range of 265.5 to 268.4 °C.
The compound `COc1cc(/C=C2\NC(=O)NC2=O)cc(OC)c1OC` [Compound 34, (Z)-5-(3,4,5-trimethoxybenzylidene)imidazolidine-2,4-dione] displayed a melting point of 266.3 to 267.2 °C.
Compound `COc1cc(/C=C2\CC(=O)NC2=O)ccc1O` [Compound 39, (E)-3-(4-hydroxy-3-methoxybenzylidene)pyrrolidine-2,5-dione] registered a melting point of 243.5 to 245.7 °C.
`CCOc1cc(/C=C2\CC(=O)NC2=O)ccc1O` [Compound 40, (E)-3-(3-ethoxy-4-hydroxybenzylidene)pyrrolidine-2,5-dione] showed a melting point of 222.3 to 224.1 °C.
As for `COc1ccc(/C=C2\CC(=O)NC2=O)cc1` [Compound 42, (E)-3-(4-methoxybenzylidene)pyrrolidine-2,5-dione], the melting point fell in the range of 243.4 to 245.7 °C.
As for `COc1ccc(/C=C2\CC(=O)NC2=O)cc1OC` [Compound 43, (E)-3-(3,4-dimethoxybenzylidene)pyrrolidine-2,5-dione], the figure is 237.1 to 238.4 °C.
